Data taken from patent publication US20240376084A1, “INHIBITORS OF ALPHA-HEMOLYSIN OF STAPHYLOCOCCUS AUREUS” (Helmholtz-Zentrum Fur Infektionsforschung GmbH, priority 2021, published 2024).

Legend:
[1] = target: hemolysin alpha from Staphylococcus aureus (Staphylococcus aureus, UniProt P09616); assay: cell-based
[2] = target: S. aureus Alpha hemolysin (Staphylococcus aureus, UniProt P09616); assay: cell-based; conditions: A549-LDH Assay activity
S. aureus Alpha hemolysin, sequence (P09616 27-319 limits assumed): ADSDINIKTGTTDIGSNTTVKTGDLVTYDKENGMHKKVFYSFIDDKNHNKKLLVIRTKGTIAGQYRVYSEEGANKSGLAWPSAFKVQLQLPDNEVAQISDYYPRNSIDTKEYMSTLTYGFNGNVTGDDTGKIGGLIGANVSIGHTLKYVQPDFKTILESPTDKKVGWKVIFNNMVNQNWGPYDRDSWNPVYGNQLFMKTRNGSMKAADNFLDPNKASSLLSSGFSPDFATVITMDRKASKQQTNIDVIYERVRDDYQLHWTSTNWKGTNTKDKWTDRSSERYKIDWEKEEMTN

hemolysin alpha from Staphylococcus aureus, sequence (P09616 27-319 limits assumed): as above

Row | Structure (SMILES) | EC50 [1] [nM] | EC50 [2] [nM] | IC50 [1] [nM]
1 | Cc1cc2[nH]c(=O)c(=O)[nH]c2cc1S(=O)(=O)Nc1ccc(-c2ccc3c(c2)N(C)C(=O)CO3)c(Cl)c1 [Compound 356, N-[3-chloro-4-(4-methyl-3-oxo-1,4-benzoxazin-6-yl)phenyl]-7-methyl-2,3-dioxo-1,4-dihydroquinoxaline-6-sulfonamide] | < 30 | 30 to 100 | 
2 | Cc1cc2[nH]c(=O)c(=O)[nH]c2cc1S(=O)(=O)Nc1ccc(-c2ccn3ccnc3c2)c(Cl)c1 [Compound 336, N-(3-chloro-4-imidazo[1,2-a]pyridin-7-yl-phenyl)-7-methyl-2,3-dioxo-1,4-dihydroquinoxaline-6-sulfonamide] | 30 to 100 | 100 to 1000 | 
3 | COc1cc2[nH]c(=O)c(=O)[nH]c2cc1S(=O)(=O)Nc1ccc(OC(F)F)cc1 [Compound 391, N-[4-(difluoromethoxy)phenyl]-7-methoxy-2,3-dioxo-1,4-dihydroquinoxaline-6-sulfonamide] | 1000 to 3500 | 100 to 1000 | 
4 | C#Cc1cc(NS(=O)(=O)c2cc3[nH]c(=O)c(=O)[nH]c3cc2C)ccc1-c1ccc(F)cc1 [Compound 378, N-[3-ethynyl-4-(4-fluorophenyl)phenyl]-7-methyl-2,3-dioxo-1,4-dihydroquinoxaline-6-sulfonamide] | < 30 | < 30 | 
5 | O=c1[nH]c2cc(F)c(S(=O)(=O)Nc3ccc(-c4cccnc4)c(Cl)c3)cc2[nH]c1=O [Compound 99, N-(3-chloro-4-(pyridin-3-yl)phenyl)-7-fluoro-2,3-dioxo-1,2,3,4-tetrahydroquinoxaline-6-sulfonamide] |  | 1000 to 6000 | 100 to 1000
6 | O=c1[nH]c2cc(Cl)c(S(=O)(=O)Nc3ccc(-c4ccc(F)cc4)c(Cl)c3)cc2[nH]c1=O [Compound 12, 7-chloro-N-(2-chloro-4′-fluoro-[1,1′-biphenyl]-4-yl)-2,3-dioxo-1,2,3,4-tetrahydroquinoxaline-6-sulfonamide] |  | 100 to 1000 | < 30
7 | COc1ccccc1-c1c(C)cc(NS(=O)(=O)c2cc3[nH]c(=O)c(=O)[nH]c3cc2C)cc1C [Compound 102, N-(2′-methoxy-2,6-dimethyl-[1,1′-biphenyl]-4-yl)-7-methyl-2,3-dioxo-1,2,3,4-tetrahydroquinoxaline-6-sulfonamide] |  | 30 to 100 | 100 to 1000
8 | Cc1cc(NS(=O)(=O)c2cc3[nH]c(=O)c(=O)[nH]c3cc2F)ccc1-c1ccccc1 [Compound 33, 7-fluoro-N-(2-methyl-[1,1′-biphenyl]-4-yl)-2,3-dioxo-1,2,3,4-tetrahydroquinoxaline-6-sulfonamide] |  | 30 to 100 | < 30
9 | Cc1cc2[nH]c(=O)c(=O)[nH]c2cc1S(=O)(=O)Nc1ccc(C2CC2)cc1 [Compound 53, N-(4-cyclopropylphenyl)-7-methyl-2,3-dioxo-1,2,3,4-tetrahydroquinoxaline-6-sulfonamide] |  | < 30 | 30 to 100
10 | Cc1cc2[nH]c(=O)c(=O)[nH]c2cc1S(=O)(=O)Nc1ccc2ccccc2c1 [Compound 60, 7-methyl-N-(naphthalen-2-yl)-2,3-dioxo-1,2,3,4-tetrahydroquinoxaline-6-sulfonamide] |  | 30 to 100 | 30 to 100
11 | C#Cc1ccc(NS(=O)(=O)c2cc3[nH]c(=O)c(=O)[nH]c3cc2C)cc1 [Compound 130, N-(4-ethynylphenyl)-7-methyl-2,3-dioxo-1,2,3,4-tetrahydroquinoxaline-6-sulfonamide] |  | 100 to 1000 | 100 to 1000
12 | COc1cc(OC)cc(-c2ccc(NS(=O)(=O)c3cc4[nH]c(=O)c(=O)[nH]c4cc3C)cc2Cl)c1 [Compound 258, N-[3-chloro-4-(3,5-dimethoxyphenyl)phenyl]-7-methyl-2,3-dioxo-1,4-dihydroquinoxaline-6-sulfonamide] | 100 to 1000 | 100 to 1000 | 
13 | Cc1ccccc1-c1ccc(NS(=O)(=O)c2cc3[nH]c(=O)c(=O)[nH]c3cc2C)cc1C [Compound 103, N-(2,2′-dimethyl-[1,1′-biphenyl]-4-yl)-7-methyl-2,3-dioxo-1,2,3,4-tetrahydroquinoxaline-6-sulfonamide] |  | 100 to 1000 | 100 to 1000
14 | Cc1cc2[nH]c(=O)c(=O)[nH]c2cc1S(=O)(=O)Nc1ccc(-c2ccccc2F)c(Cl)c1 [Compound 5, N-(2-chloro-2′-fluoro-[1,1′-biphenyl]-4-yl)-7-methyl-2,3-dioxo-1,2,3,4-tetrahydroquinoxaline-6-sulfonamide] |  | 30 to 100 | < 30
15 | Cc1cc2[nH]c(=O)c(=O)[nH]c2cc1S(=O)(=O)Nc1ccc(-c2ccc(N(C)C)cc2)c(Cl)c1 [Compound 288, N-[3-chloro-4-[4-(dimethylamino)phenyl]phenyl]-7-methyl-2,3-dioxo-1,4-dihydroquinoxaline-6-sulfonamide] | 100 to 1000 | 1000 to 6000 | 
16 | CCCc1ccc(NS(=O)(=O)c2cc3[nH]c(=O)c(=O)[nH]c3cc2F)cc1 [Compound 87, 7-fluoro-2,3-dioxo-N-(4-propylphenyl)-1,2,3,4-tetrahydroquinoxaline-6-sulfonamide] |  | 30 to 100 | 100 to 1000
17 | C#Cc1cc(NS(=O)(=O)c2cc3[nH]c(=O)c(=O)[nH]c3cc2C)ccc1-c1ccc2cc[nH]c2c1 [Compound 301, N-[3-ethynyl-4-(1H-indol-6-yl)phenyl]-7-methyl-2,3-dioxo-1,4-dihydroquinoxaline-6-sulfonamide] | < 30 | < 30 | 
18 | CCOC(=O)c1ccccc1-c1ccc(NS(=O)(=O)c2cc3[nH]c(=O)c(=O)[nH]c3cc2C)cc1 [Compound 120, ethyl 4′-((7-methyl-2,3-dioxo-1,2,3,4-tetrahydroquinoxaline)-6-sulfonamido)-[1,1′-biphenyl]-2-carboxylate] |  | 1000 to 6000 | 100 to 1000
19 | Cc1cc2[nH]c(=O)c(=O)[nH]c2cc1S(=O)(=O)Nc1ccc(-c2ccc(F)cc2)c(Br)c1 [Compound 244, N-[3-bromo-4-(4-fluorophenyl)phenyl]-7-methyl-2,3-dioxo-1,4-dihydroquinoxaline-6-sulfonamide] | < 30 | 30 to 100 | 
20 | [2H]C([2H])([2H])Oc1ccc(-c2ccc(NS(=O)(=O)c3cc4[nH]c(=O)c(=O)[nH]c4cc3C)cc2Cl)cc1 [Compound 267, N-[3-chloro-4-[4-(trideuteriomethoxy)phenyl]phenyl]-7-methyl-2,3-dioxo-1,4-dihydroquinoxaline-6-sulfonamide] | < 30 | 30 to 100 | 
21 | Cc1cc2[nH]c(=O)c(=O)[nH]c2cc1S(=O)(=O)Nc1ccc(-c2ccc(C#N)cc2)c(Cl)c1 [Compound 376, N-[3-chloro-4-(4-cyanophenyl)phenyl]-7-methyl-2,3-dioxo-1,4-dihydroquinoxaline-6-sulfonamide] | < 30 | 30 to 100 | 
22 | Cc1cc2[nH]c(=O)c(=O)[nH]c2cc1S(=O)(=O)Nc1cnc(-n2nccn2)c(Cl)c1 [Compound 385, N-[5-chloro-6-(triazol-2-yl)-3-pyridyl]-7-methyl-2,3-dioxo-1,4-dihydroquinoxaline-6-sulfonamide] | 1000 to 3500 | 100 to 1000 | 
23 | Cc1cc2[nH]c(=O)c(=O)[nH]c2cc1S(=O)(=O)Nc1ccc(-c2cccc(O)c2)c(C(F)(F)F)c1 [Compound 366, N-[4-(3-hydroxyphenyl)-3-(trifluoromethyl)phenyl]-7-methyl-2,3-dioxo-1,4-dihydroquinoxaline-6-sulfonamide] | < 30 | 30 to 100 | 
